From patent US20260008768A1, “UREA DERIVATIVES FOR INHIBITING NLRP3 AND USES THEREOF” (VENTUS THERAPEUTICS U.S., INC., priority 2023, published 2026)

Molecular target: T1, human NLRP3 (Homo sapiens, UniProt Q96P20)
Assay: Human PBMC NLRP3 Assay (LPS priming, ATP stimulation, cytokine measurement)
Format: cell-based
Design: host or cells: human PBMCs (A2); human whole blood from healthy volunteers (A3)
Conditions: Table B, activity class; human PBMC, LPS + ATP
Description: Reagents: Human PBMCs (Normal): iXCells Cat #10HU-003; RPMI 1640 medium with GlutaMAX: ThermoFisher Cat #61870127 (Complete Media: 4.5 g/L D-glucose, 10% FBS, 100 mM NaPyr, 1% Pen/Strep, 10 mM HEPES and 0.05 mM of ®-mercaptoethanol; Assay Media: 4.5 g/L D-glucose, 100 mM NaPyr, 1% Pen/Strep, 10 mM HEPES and 0.05 mM of mercaptoethanol; 96-well V-bottom Plates: Costar Cat #3894; LPS (E. coli O26:B6): Sigma Cat #L2654, stock 5 mg/mL in PBS; ATP: Sigma Cat #A6419, prepared in a 250 mM stock in 1 M HEPES (adjusted to pH 7.4).
Cryopreserved PBMCs were rapidly thawed in a 37° C. water bath for 2 min. Cells were then centrifuged at 1200 RPM for 5 min and resuspended in ˜50 mL of fresh RPMI 1640 Complete Medium. A count was undertaken using a hemocytometer and adjusted to 2.5×10^5 cells/mL. V-shaped 96-well plates were seeded with 200 μL of PBMCs (5×10^4) per well and subsequently incubated overnight at 37° C. with 5% CO2. Assay Media was then prepared containing 100 ng/ml of LPS. PBMCs were then centrifuged at 1,200 RPM for 5 min, serum containing media was aspirated, and 150 μL/well of Assay Media+LPS was immediately added. Assay Media without LPS was added in the untreated control wells. Cells were then primed with LPS for 4 h at 37° C. with 5% CO2. A concentration response curve (CRC) was prepared of 1000× test compound in 100% DMSO. The CRC was then diluted 1:50 in Assay Media and then further diluted by 1:5× in Assay Media resulting in a final 4×CRC in 0.4% DMSO/Assay Media. 50 μL/well of 4× test compound CRC or vehicle (0.4% DMSO/Assay Media) was then transferred into each well and subsequently incubated for 30 min at 37° C. with 5% CO2. Cells were stimulated by adding 4 μL of 250 mM ATP, using a 250 mM stock prepared in 1 M Hepes without further dilution (for a final concentration of 5 mM), for 1 h at 37° C. with 5% CO2 Plates were then centrifuged at 1200 RPM for 5 min; and 50 μl of the media was transferred to a clean 96-well storage plate for cytokine measurements using the mesoscale platform, and stored at −80° C. until analyzed. Compounds were added 30 minutes before priming the cells with LPS when TNFα was required to be quantified in the cytokine panel to confirm selectivity.
PBMC NLRP3 IC50 assay results, as a measurement of cellular potency, are provided in Table B. “A” activity=<0.01 uM; “B” activity=0.01-0.1 uM; “C” activity=>0.1-0.5 uM; “D” activity=>0.5 uM.

T1 sequence (Q96P20 whole entry): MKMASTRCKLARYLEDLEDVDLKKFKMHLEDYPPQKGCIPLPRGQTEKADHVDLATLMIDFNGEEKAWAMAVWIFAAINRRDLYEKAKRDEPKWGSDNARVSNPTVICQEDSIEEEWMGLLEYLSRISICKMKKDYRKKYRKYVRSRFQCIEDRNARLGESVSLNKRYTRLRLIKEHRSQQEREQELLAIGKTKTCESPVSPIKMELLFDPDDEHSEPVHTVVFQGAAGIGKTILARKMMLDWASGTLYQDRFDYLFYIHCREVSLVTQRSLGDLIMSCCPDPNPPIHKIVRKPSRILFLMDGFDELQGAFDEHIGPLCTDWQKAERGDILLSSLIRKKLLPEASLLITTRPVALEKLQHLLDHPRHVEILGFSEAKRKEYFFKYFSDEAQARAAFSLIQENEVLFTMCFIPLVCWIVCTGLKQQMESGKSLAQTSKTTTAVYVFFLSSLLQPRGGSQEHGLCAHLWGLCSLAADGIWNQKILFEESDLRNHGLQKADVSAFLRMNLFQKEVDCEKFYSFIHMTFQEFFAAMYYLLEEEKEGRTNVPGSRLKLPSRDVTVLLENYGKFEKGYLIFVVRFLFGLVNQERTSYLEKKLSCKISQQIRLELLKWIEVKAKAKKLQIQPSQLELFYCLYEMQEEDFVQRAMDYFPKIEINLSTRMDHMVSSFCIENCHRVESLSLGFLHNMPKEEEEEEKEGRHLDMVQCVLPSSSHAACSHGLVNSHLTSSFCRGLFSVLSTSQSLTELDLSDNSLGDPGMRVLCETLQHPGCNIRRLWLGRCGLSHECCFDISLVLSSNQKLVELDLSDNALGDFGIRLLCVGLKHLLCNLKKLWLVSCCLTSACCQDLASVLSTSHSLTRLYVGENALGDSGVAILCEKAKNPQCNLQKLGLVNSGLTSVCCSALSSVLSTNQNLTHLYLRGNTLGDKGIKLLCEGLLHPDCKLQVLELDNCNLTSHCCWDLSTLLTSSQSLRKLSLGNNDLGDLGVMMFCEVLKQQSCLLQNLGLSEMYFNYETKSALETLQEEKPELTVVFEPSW

First: C[C@@H]1CCN(c2nnn[nH]2)C[C@H](NC(=O)N(C)c2ccc(Cl)cc2Cl)C1 (single isomer, unassigned) [7A*]
Second: CN(C(=O)N[C@@H]1CCCN(c2nnn[nH]2)C1)c1ccc(Cl)cc1F [Compound 66, (R)-3-(1-(1H-tetrazol-5-yl)piperidin-3-yl)-1-(4-chloro-2-fluorophenyl)-1-methylurea]
The IC50 of the first is lower: less than 0.01 µM for the first, greater than 0.5 µM for the second. The first is the more potent here.

`C[C@@H]1CCN(c2nnn[nH]2)C[C@H](NC(=O)N(C)c2ccc(C3CC3)cc2)C1` (single isomer, unassigned) [8A*] gave an IC50 of less than 0.01 µM.

Same assay, conditions: Table C; human PBMC, LPS + ATP

First: C[C@@H]1CCN(c2nnn[nH]2)C[C@H](NC(=O)N(C)c2ccc(Cl)cc2Cl)C1 (single isomer, unassigned) [7A*]
Second: CN(C(=O)N[C@@H]1CCCN(c2nnn[nH]2)C1)c1ccc(Cl)cc1F [Compound 66, (R)-3-(1-(1H-tetrazol-5-yl)piperidin-3-yl)-1-(4-chloro-2-fluorophenyl)-1-methylurea]
The IC50 of the first is 99-fold lower: 0.009 µM for the first, 0.892 µM for the second. The first is the more potent here.

Compared with `CN(C(=O)N[C@@H]1CCN(c2nnn[nH]2)C1)c1ccc(Cl)cc1` (single isomer, unassigned) [Comparative Example A*, reference compound], `CN(C(=O)N(C)[C@@H]1CCCN(c2nnn[nH]2)C1)c1ccc(Cl)cc1` [Comparative Example C2, (R)-1-(1-(1H-tetrazol-5-yl)piperidin-3-yl)-3-(4-chlorophenyl)-1,3-dimethylurea, reference compound] is lower in IC50: greater than 100 µM for the first, 58.1 µM for the second. The second is the more potent here.

Compared with `CN(C(=O)N[C@@H]1CCCN(c2ccccc2)C1)c1ccc(Cl)cc1` [Comparative Example D1, (R)-1-(4-chlorophenyl)-1-methy1-3-(1-phenylpiperidin-3-yl)urea, reference compound], `CN(C(=O)N[C@H]1CCCN(c2ccccc2)C1)c1ccc(Cl)cc1` [Comparative Example D2, (S)-1-(4-chlorophenyl)-1-methyl-3-(1-phenylpiperidin-3-yl)urea, reference compound] is higher in IC50: 39.1 µM for the first, greater than 100 µM for the second.

Compared with `CN(C(=O)N[C@@H]1CCCN(c2nnnn2C)C1)c1ccc(Cl)cc1` [Comparative Example F, (R)-1-(4-chlorophenyl)-1-methyl-3-(1-(1-methy1-1H-tetrazol-5-yl)piperidin-3-yl)urea, reference compound], `O=C(N[C@@H]1CCCN(c2nnn[nH]2)C1)c1ccc(Cl)cc1` [Comparative Example G, (R)-N-(1-(1H-tetrazol-5-yl)piperidin-3-yl)-4-chlorobenzamide, reference compound] is higher in IC50: 15.5 µM for the first, greater than 100 µM for the second.

`O=C(N[C@@H]1CCCN(c2ccccc2)C1)c1ccc(Cl)cc1` [Comparative Example J1, (R)-4-chloro-N-(1-phenylpiperidin-3-yl)benzamide, reference compound] and `O=C(N[C@H]1CCCN(c2ccccc2)C1)c1ccc(Cl)cc1` [Comparative Example J2, (S)-4-chloro-N-(1-phenylpiperidin-3-yl)benzamide, reference compound] cannot be ordered by IC50: greater than 100 µM for the first, greater than 100 µM for the second.

Molecular target: T1, human NLRP3
Assay: Scintillation Proximity (SPA) NLRP3 Assay, displacement of 3H-MCC950
Format: binding
Conditions: Table B, activity class; displacement of 3H-MCC950 from human NLRP3
Method in brief: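 Human NLRP3 (350 nM) preincubated 15 min at RT with compound (5% DMSO final) in HEPES pH 7.5 buffer with 100 μM ADP, then 125 nM 3H-MCC950 added for 60 min. Copper PVT SPA beads added; counts read 6 h later. Specific binding = signal minus no-protein wells, duplicates averaged; IC50 reported.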

Compared with `C[C@@H]1CCN(c2nnn[nH]2)C[C@H](NC(=O)N(C)c2ccc(Cl)cc2Cl)C1` (single isomer, unassigned) [7A*], `C[C@H]1CCN(c2nnn[nH]2)C[C@@H](NC(=O)N(C)c2ccc(C(F)(F)F)c(F)c2)C1` [Compound 9D, 1-(3-fluoro-4-(trifluoromethyl)phenyl)-1-methyl-3-((3S,5S)-5-methyl-1-(1H-tetrazol-5-yl)azepan-3-yl)urea] is higher in IC50: less than 1 µM for the first, 1 to 10 µM for the second. The first is the more potent here.

`C[C@@H]1CCN(c2nnn[nH]2)C[C@H](NC(=O)N(C)c2ccc(C3CC3)cc2)C1` (single isomer, unassigned) [8A*] and `C[C@H]1C[C@@H](NC(=O)N(C)c2ccc(OC(F)F)cc2)CN(c2nnn[nH]2)C1` [Compound 39A, 1-(4-(difluoromethoxy)phenyl)-1-methyl-3-((3R,5S)-5-methyl-1-(1H-tetrazol-5-yl)piperidin-3-yl)urea] cannot be ordered by IC50: less than 1 µM for the first, less than 1 µM for the second.

First: C[C@H]1C[C@H](NC(=O)N(C)c2c(F)cc(C3CC3)cc2F)[C@@H]2CC[C@H]1N2c1nnn[nH]1 (single isomer, unassigned) [60D*]
Second: C[C@@H]1C[C@H](NC(=O)N(C)c2c(F)cc(OC(F)F)cc2F)[C@H]2CC[C@@H]1N2c1nnn[nH]1 (single isomer, unassigned) [61B*]
The IC50 of the first is lower: 1 to 10 µM for the first, greater than 100 µM for the second.

First: C[C@H]1C[C@@H](NC(=O)N(C)c2c(F)cc(OC(F)F)cc2F)[C@@H]2CC[C@H]1N2c1nnn[nH]1 (single isomer, unassigned) [61C*]
Second: C[C@H]1C[C@H](NC(=O)N(C)c2c(F)cc(OC(F)F)cc2F)[C@@H]2CC[C@H]1N2c1nnn[nH]1 (single isomer, unassigned) [61D*]
The IC50 of the first is higher: greater than 100 µM for the first, 10 to 50 µM for the second. The second is the more potent here.

Compared with `C[C@@H]1C[C@H](NC(=O)N(C)c2c(F)cc(OC(F)(F)F)cc2F)[C@H]2CC[C@@H]1N2c1nnn[nH]1` (single isomer, unassigned) [62B*], `C[C@H]1C[C@@H](NC(=O)N(C)c2c(F)cc(OC(F)(F)F)cc2F)[C@@H]2CC[C@H]1N2c1nnn[nH]1` (single isomer, unassigned) [62C*] is lower in IC50: greater than 100 µM for the first, 50 to 100 µM for the second. The second is the more potent here.

First: C[C@H]1C[C@H](NC(=O)N(C)c2c(F)cc(OC(F)(F)F)cc2F)[C@@H]2CC[C@H]1N2c1nnn[nH]1 (single isomer, unassigned) [62D*]
Second: C[C@@H]1C[C@H](NC(=O)N(C)c2ccc(OC(F)(F)F)c(OC(F)F)c2)[C@H]2CC[C@@H]1N2c1nnn[nH]1 (single isomer, unassigned) [63B*]
The IC50 of the first is lower: 50 to 100 µM for the first, greater than 100 µM for the second.

`C[C@H]1C[C@@H](NC(=O)N(C)c2ccc(OC(F)(F)F)c(OC(F)F)c2)[C@@H]2CC[C@H]1N2c1nnn[nH]1` (single isomer, unassigned) [63C*] and `C[C@H]1C[C@H](NC(=O)N(C)c2ccc(OC(F)(F)F)c(OC(F)F)c2)[C@@H]2CC[C@H]1N2c1nnn[nH]1` (single isomer, unassigned) [63D*] fall in the same range of IC50: 50 to 100 µM for the first, 50 to 100 µM for the second.

`C[C@@H]1C[C@H](NC(=O)N(C)c2ccc(OC(F)F)c(OC(F)F)c2)[C@H]2CC[C@@H]1N2c1nnn[nH]1` (single isomer, unassigned) [64B*] and `C[C@H]1C[C@@H](NC(=O)N(C)c2ccc(OC(F)F)c(OC(F)F)c2)[C@@H]2CC[C@H]1N2c1nnn[nH]1` (single isomer, unassigned) [64C*] cannot be ordered by IC50: greater than 100 µM for the first, greater than 100 µM for the second.

Compared with `C[C@H]1C[C@H](NC(=O)N(C)c2ccc(OC(F)F)c(OC(F)F)c2)[C@@H]2CC[C@H]1N2c1nnn[nH]1` (single isomer, unassigned) [64D*], `CCN(C(=O)N[C@H]1C[C@H](C)[C@H]2CC[C@@H]1N2c1nnn[nH]1)c1ccc(OC(F)F)cc1F` (single isomer, unassigned) [65D*] is higher in IC50: 1 to 10 µM for the first, 10 to 50 µM for the second. The first is the more potent here.

Compared with `O=C(N[C@@H]1CCCN(c2nnn[nH]2)C1)N(c1ccc(Cl)cc1)C1CC1` [Compound 3A, (R)-3-(1-(1H-tetrazol-5-yl)piperidin-3-yl)-1-(4-chlorophenyl)-1-cyclopropylurea], `C[C@H]1C[C@@H](NC(=O)N(C)c2ccc3ocnc3c2)CN(c2nnn[nH]2)C1` [Compound 34A, 1-(benzo[d]oxazol-5-yl)-1-methyl-3-((3R,5S)-5-methyl-1-(1H-tetrazol-5-yl)piperidin-3-yl)urea] is lower in IC50: greater than 100 µM for the first, 50 to 100 µM for the second.

`C[C@H]1C[C@@H](NC(=O)N(C)c2ccc3ncoc3c2)CN(c2nnn[nH]2)C1` [Compound 35A, 1-(benzo[d]oxazol-6-yl)-1-methyl-3-((3R,5S)-5-methyl-1-(1H-tetrazol-5-yl)piperidin-3-yl)urea] and `C[C@H]1C[C@@H](NC(=O)N(C)c2ccc3cnoc3c2)CN(c2nnn[nH]2)C1` [Compound 38A, 1-(benzo[d]isoxazol-6-yl)-1-methyl-3-((3R,5S)-5-methyl-1-(1H-tetrazol-5-yl)piperidin-3-yl)urea] fall in the same range of IC50: 10 to 50 µM for the first, 10 to 50 µM for the second.

`C[C@H]1C[C@@H](NC(=O)N(C)c2ccc3ccnn3c2)CN(c2nnn[nH]2)C1` [Compound 36A, 1-methyl-3-((3R,5S)-5-methyl-1-(1H-tetrazol-5-yl)piperidin-3-yl)-1-(pyrazolo[1,5-a]pyridin-6-yl)urea] and `C[C@H]1C[C@@H](NC(=O)N(C)c2ccc3nccn3c2)CN(c2nnn[nH]2)C1` [Compound 37A, 1-(imidazo[1,2-a]pyridin-6-yl)-1-methyl-3-((3R,5S)-5-methyl-1-(1H-tetrazol-5-yl)piperidin-3-yl)urea] cannot be ordered by IC50: greater than 100 µM for the first, greater than 100 µM for the second.

Same assay, conditions: Table C; displacement of 3H-MCC950 from human NLRP3

In order of rising IC50:
1. C[C@@H]1CCN(c2nnn[nH]2)C[C@H](NC(=O)N(C)c2ccc(Cl)cc2Cl)C1 (single isomer, unassigned) [7A*]  0.24 µM
2. C[C@H]1C[C@@H](NC(=O)N(C)c2ccc(OC(F)F)cc2)CN(c2nnn[nH]2)C1 [Compound 39A, 1-(4-(difluoromethoxy)phenyl)-1-methyl-3-((3R,5S)-5-methyl-1-(1H-tetrazol-5-yl)piperidin-3-yl)urea]  0.82 µM
